# In patent US8173840B2, “Compounds with high therapeutic index” (Signature R&D Holdings, LLC, priority 2003, dated 2012):
# Several values for one entry are separate records, joined by “and”; a condition that tells them apart may be missing. Equal values may be shown once. Read-outs that look alike come from different tables or passages of the source.
# Legend:
# [1] = Solubility of propofol and its amino acid esters in water
# Description: For example, assume propofol is the drug and lysine is the amino acid.
# [2] = test system: albino mouse; assay: Anesthetic effect in male albino mice, righting reflex as index
# Description: However the doses of low, intermediate and high for different formulations and reference control were different.
# The different doses for each formulation and reference control were selected based on the recommendation of Sponsor. All the doses were expressed as propofol molar equivalents.
# [3] = test system: fasted male albino rats (Wistar strain); assay: Gastric mucosa irritation of acetylsalicylic acid esters; format: in vivo, rat; settings: two doses, 100 and 200 mg/kg
# Method: Aspirin served as a reference control. […] All the doses were expressed as aspirin molar equivalents. The doses used as well as the molar equivalents are presented below. The rats were fasted for a period of 18 to 22 hours before dosing. The test item was administered as a single dose by gavage. Three hours after drug administration, the animals were killed humanely by CO2 gas inhalation. The stomach was dissected out and observed for • the quantity of mucous exudate, • degree of hyperemia and thickening of stomach wall, • hemorrhagic spots (focal or diffuse), nature of hemorrhages (petechial or ecchymotic) along with the size and • perforations
# [4] = test system: albino rats; assay: Blood clotting time in albino rats, one hour after dosing; format: in vivo, rat; settings: for Mean Clotting Time (±S.D.), Low Dose: 1.0 mg/kg as aspirin; for Mean Clotting Time (±S.D.), Low Dose / Mean Clotting Time (±S.D.), Intermediate Dose / Mean Clotting Time (±S.D.), High Dose / statistical analysis of mean clotting time vs vehicle control: one hour after dosing; for Mean Clotting Time (±S.D.), Intermediate Dose: 4.0 mg/kg as aspirin; for Mean Clotting Time (±S.D.), High Dose: 10.0 mg/kg as aspirin; for effectiveness with respect to clotting time: one hour after administration
# Method: The data on the mean clotting time (MCT) of the animals of low, intermediate and high dose groups of different formulations, vehicle control and positive control groups estimated one hour after dosing were presented below (Table 19):
# Aspirin served as positive control. The study was conducted at three dose levels with the new formulations and positive control along with a vehicle control group.
# The doses for the main study were selected based on the dose range finding experiments with acetylsalicylic acid. All the doses were expressed as aspirin molar equivalents. The doses used are presented below.
# [5] = test system: Male albino rats; assay: Blood clotting time in albino rats, 2 hours after dosing; format: in vivo, rat; settings: for Mean Clotting Time (± S.D.): 20 mg/kg as aspirin, 2 hours (±10 minutes) after dosing; for mean blood clotting time with respect to positive control (statistics): after two hours
# Method: Aspirin served as positive control. Male albino rats were exposed to aspirin and to 3 new formulations of amino acid derivatives of aspirin derivatives at one dose level of 20 mg/kg body weight. […]. The doses were expressed as aspirin molar equivalents.
# The efficacy in terms of time required for the blood clotting time at the dose level of 20 mg/kg body weight for different formulations of amino acid derivatives of aspirin and aspirin (positive control) are presented below:
# The data on the mean clotting time (MCT) of the animals, estimated 2 hours (±10 minutes) after dosing, at the dose level of 20 mg/kg body weight for the formulations of aspirin derivatives, vehicle control and positive control are presented below
# [6] = test system: rats; assay: Clotting time in rats, different date, time intervals and doses (Table 24); format: in vivo, rat
# Description: The following additional data were obtained, when the same drugs were compared in rats on a different date with different time intervals and doses: […]
# [7] = test system: human volunteers; assay: Blood clotting time studies in human volunteers; format: in vivo; settings: for AVERAGE CLOTTING TIME: human volunteers, listed as ASA-T ESTER
# Method: Several blood clotting time studies were performed on a limited number of human volunteers with Acetylsalicylic Acid-L-Threonine Ester. […] This plot was derived from the data in Table 29. The two Acetylsalicylic Acid-L-Threonine Ester blocks shown above correspond to two separate volunteers who took the test drug over a period of 5 days. The third volunteer took Bayer Aspirin for 5 days. As per FIG. 2, increase in clotting time occurred on the very first day of drug intake, and remained higher than Bayer ASA during the subsequent administrations.
# [8] = Plasma aspirin and salicylic acid in human volunteers; format: in vivo
# Description: This is shown in FIG. 12 which depicts the concentration of salicyclic Acid in human plasma with respect to four volunteers who took Acetylsalicyclic Acid-L-Threonine Ester and two volunteers who took Aspirin.
# [9] = test system: albino rats (Wistar strain); settings: rat, in vivo;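 also: one dose level only, compared with a vehicle control group, with doses stated as Aspirin molar equivalents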
# Method: The study was conducted at one dose level only along with a vehicle control group as per the recommendation of the Sponsor. The test doses are expressed as Aspirin molar equivalents.
# [10] = cited from earlier work; for solubility in deionized water: deionized water at 25° C.
# [11] = test system: laboratory mice; assay: DSS induced ulcerative colitis in mice, disease treatment study (Disease Activity Index); format: in vivo, mouse; settings: for Mean DAI: treatment started after colitis symptoms, mean of 10 mice
# Description: The mean group DAI is the determined.
# Much more dramatic results were obtained when the mice were initially treated with DSS to induce colitis. Once clear symptoms of colitis were seen, DSS was replaced by drinking water, and treatment started with test and reference drugs, including vehicle control. All results are mean of 10 mice.
# [12] = test system: laboratory mice; settings: for Mean DAI: DSS coupled with drug from day 1, 10 mice per group; for performance in the model: DSS coupled with drug from day 1
# Method: Percent animal body weight loss, stool consistency and occult blood at the end of the study will be taken into consideration to calculate Disease Activity Index (“DAI”) of each animal. The following scoring system outlined in Table 30 was for the percent body weight loss, stool consistency and occult blood:
# The scores for each parameter for each mouse at the end of study are added together and divided by three (number of observations) to determine DAI. The mean group DAI is the determined. A score of 3 was assigned for any animal that died during the testing.
# In this study, DSS administration is coupled with administration of either test or reference drug from day 1.
molecule,measurement,setting,value
"CC(C)c1cccc(C(C)C)c1OC(=O)C(N)CCCCN.Cl.Cl (stereo in doubt) [Propofol Lysine Ester, 2(S),6-Diamino-hexanoic acid 2,6-diisopropyl-phenyl ester, dihydrochloride]",solubility in water,[1],> 250 mg/mL
same,"anesthetic effect, relative efficacy",[2]; Intermediate Dose,did not show any anesthetic effect
same,"anesthetic effect, relative efficacy",[2]; Low Dose,did not show any anesthetic effect
same,efficacy in inducing anesthesia based on time required to regain the righting reflex (conclusion),[2]; albino mice,relatively better efficacy
same,dose response relation (statistical analysis),"[2]; low, intermediate, high dose",significant improvement at 5% significance level in the relative efficacy for the high dose when compared to low dose group
"CC(=O)Oc1ccccc1C(=O)O[C@H](C)[C@H](N)C(=O)O [2-O-Acetylsalicylic Acid (2S,3R)-(−)-threonine Ester]",esters inducing evidence of irritation of gastric mucosa,[3],none
same,"Mean Clotting Time (±S.D.), Low Dose",[4],5.2 ± 1.14 min
same,"Mean Clotting Time (±S.D.), Intermediate Dose",[4],5.6 ± 0.84 min
same,"Mean Clotting Time (±S.D.), High Dose",[4],7.4 ± 0.97 min
same,effectiveness with respect to clotting time,[4],as effective as acetylsalicylic acid
same,statistical analysis of mean clotting time vs vehicle control,[4],significant improvement at 5% significance level in the efficacy for the high dose
same,Mean Clotting Time (± S.D.),[5],5.3 ± 1.06 min
same,relative efficacy on clotting time,[5]; 2 hours after dosing,relatively better efficacy than the other two formulations
same,mean blood clotting time with respect to positive control (statistics),[5],no significant difference at 5% significance level
same,Clotting Time,[6]; 10 mg/kg 1 hr,7.4 min
same,Clotting Time,[6]; 10 mg/kg 24 hr,3.6 min
same,Clotting Time,[6]; 20 mg/kg 2 hr,5.3 min
same,response in the rat blood clotting time,[6]; compared against the various amino acid esters,consistently a better response
same,AVERAGE CLOTTING TIME,[7]; 81 mg,5.2 min and 5.1 min
same,AVERAGE CLOTTING TIME,[7]; 325 mg,6.2 min and 6.0 min
same,effectiveness on clotting time,"[7]; low dose of 80 mg, with baseline correction",as effective as 325 mg Bayer Aspirin
same,"Salicylic Acid in human plasma (profile, words)",[8],prolonged and sustained formation and disappearance of Salicylic acid
same,Aspirin in blood / plasma,"[8]; 325 mg dose, oral",No Aspirin was found in blood
same,"Adrenals (Abs) organ weight, Significance[P < 0.05]",[9],Decrease (Male)
same,"Alkaline Phosphatase, Significance [P < 0.05]",[9],Increase (Female)
same,"All Blood Parameters, Significance [P < 0.05]",[9],None
same,"All Clinical Chemistry, Significance [P < 0.05]",[9],None(but two
same,"Blood Glucose, Significance [P < 0.05]",[9],Decrease (Female)
same,"Cholesterol, Significance [P < 0.05]",[9],Increase (Male)
same,"Creatinine, Significance [P < 0.05]",[9],Decrease (Male)
same,Food intake,[9],normal and comparable to the animals of vehicle control group
same,"Kidney (Abs) organ weight, Significance[P < 0.05]",[9],Decrease (Male)
same,"Kidney (Rel) organ weight, Significance[P < 0.05]",[9],Increase (Male)
same,"Platelet Count, Significance [P < 0.05]",[9],Increase (Male)
same,"Spleen (Abs) organ weight, Significance[P < 0.05]",[9],Decrease (Male)
same,"Total Protein, Significance [P < 0.05]",[9],Increase (Female)
same,histological sections of organs,[9],did not show any histopathological changes
"CC(=O)Oc1ccccc1C(=O)OC1CN[C@H](C(=O)O)C1 (stereo partly drawn) [2-O-Acetylsalicylic Acid (2S,4R)-4-hydroxyproline Ester]",esters inducing evidence of irritation of gastric mucosa,[3],none
same,"Mean Clotting Time (±S.D.), Low Dose",[4],6.1 ± 1.10 min
same,"Mean Clotting Time (±S.D.), Intermediate Dose",[4],5.7 ± 0.82 min
same,"Mean Clotting Time (±S.D.), High Dose",[4],7.5 ± 1.18 min
same,effectiveness with respect to clotting time,[4],as effective as acetylsalicylic acid
same,statistical analysis of mean clotting time vs vehicle control,[4],significant improvement at 5% significance level in the efficacy for the high dose and low dose
same,Mean Clotting Time (± S.D.),[5],4.2 ± 1.32 min
same,mean blood clotting time with respect to positive control (statistics),[5],no significant difference at 5% significance level
same,Clotting Time,[6]; 10 mg/kg 1 hr,7.5 min
same,Clotting Time,[6]; 10 mg/kg 24 hr,3.3 min
same,Clotting Time,[6]; 20 mg/kg 2 hr,4.2 min
"CC(=O)Oc1ccccc1C(=O)OC[C@H](N)C(=O)O [L-serine ester of acetylsalicylic acid, 2-O-Acetylsalicylic Acid (2S)-(+)-serine Ester]",esters inducing evidence of irritation of gastric mucosa,[3],none
same,"Mean Clotting Time (±S.D.), Low Dose",[4],5.7 ± 1.34 min
same,"Mean Clotting Time (±S.D.), Intermediate Dose",[4],6.8 ± 1.48 min
same,"Mean Clotting Time (±S.D.), High Dose",[4],6.9 ± 1.37 min
same,effectiveness with respect to clotting time,[4],as effective as acetylsalicylic acid
same,Mean Clotting Time (± S.D.),[5],3.8 ± 0.92 min
same,Clotting Time,[6]; 10 mg/kg 1 hr,6.9 min
same,Clotting Time,[6]; 10 mg/kg 24 hr,4.4 min
same,Clotting Time,[6]; 20 mg/kg 2 hr,3.8 min
O=C(O)[C@@H]1C[C@@H](O)CN1 [hydroxyproline],solubility in deionized water,[10],~369 mg/mL
NCCCC[C@H](N)C(=O)O [lysine],solubility,[10],700 mg/mL
same,solubility in deionized water,[10],approximately 700 g/L
"Cyclosporine A N-(L-lysine)-glycine ester, dihydrochloride trihydrate [Cyclosporine-GL]",Mean DAI,[11],0.532
same,Mean DAI,[12],1.100
"Cyclosporine A N-(L-proline)-glycine ester, hydrochloride [Cyclosporine-GP]",Mean DAI,[11],0.066
same,statistical result vs Cyclosporine reference drug,[11]; treatment study,statistically significant results
same,performance in the model,[12],statistically significant performance compared to Cyclosporine A
same,Mean DAI,[12],1.062
Glycine Ester of Cyclosporine A [Cyclosporine-G],Mean DAI,[11],0.100
same,mice that died (out of 10),[11]; treatment study,none died
same,statistical result vs Cyclosporine reference drug,[11]; treatment study,statistically significant results
same,performance in the model,[12],didn't perform as expected
same,Mean DAI,[12],1.531
